The results in this text go back to publication PMC3916391 (PLoS Pathogens, 2014).

Like-named read-outs stand apart in the source and are kept apart here. A value given as a limit tells only on which side of the number the result lay.

The experiment concerns the target T1, pyocin L1 (Pseudomonas aeruginosa, UniProt T2LG16).
T1 construct: full length, 256 residues, 28413 Da; expressed in E. coli BL21(DE3)pLysS (pETPyoL1); monomer
T1 sequence (T2LG16 1-256): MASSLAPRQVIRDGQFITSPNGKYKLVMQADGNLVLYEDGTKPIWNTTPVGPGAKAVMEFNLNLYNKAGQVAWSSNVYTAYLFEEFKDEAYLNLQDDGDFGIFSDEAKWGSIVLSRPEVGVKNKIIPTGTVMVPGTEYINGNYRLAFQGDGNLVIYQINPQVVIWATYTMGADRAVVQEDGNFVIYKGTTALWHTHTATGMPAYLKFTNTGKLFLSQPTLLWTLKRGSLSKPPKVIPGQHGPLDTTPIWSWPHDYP
It is filed as binding.

For `OC[C@H]1OC(O)[C@@H](O)[C@@H](O)[C@@H]1O` (stereo partly drawn) [D-mannose], the Kd (read-out: Kd) was greater than 50 mM. `C[C@H]1OC(O)[C@@H](O)[C@@H](O)[C@@H]1O` (stereo partly drawn) [D-rhamnose]: the Kd (read-out: apparent Kd) was in the range of 5 to 10 mM.
